Experimental data: patent EP4650353A1 (Shanghai Institute of Materia Medica, Chinese Academy of …, priority 2023, dated 2024)
Read-outs that look alike come from different tables or passages of the source.

Key:
human GLP-1 receptor = target: T1, human GLP-1 receptor (Homo sapiens, UniProt P43220); experiment: GLP-1 receptor-mediated agonist activity: cAMP level in hGLP-1R/HEK293 cell line (HTRF); format: cell-based
T1 construct: HA (N); expressed in transfected cells

hERG potassium channels = hERG potassium channels (Homo sapiens, UniProt Q12809); experiment: cell-based
Chain of hERG potassium channels (Q12809 whole entry): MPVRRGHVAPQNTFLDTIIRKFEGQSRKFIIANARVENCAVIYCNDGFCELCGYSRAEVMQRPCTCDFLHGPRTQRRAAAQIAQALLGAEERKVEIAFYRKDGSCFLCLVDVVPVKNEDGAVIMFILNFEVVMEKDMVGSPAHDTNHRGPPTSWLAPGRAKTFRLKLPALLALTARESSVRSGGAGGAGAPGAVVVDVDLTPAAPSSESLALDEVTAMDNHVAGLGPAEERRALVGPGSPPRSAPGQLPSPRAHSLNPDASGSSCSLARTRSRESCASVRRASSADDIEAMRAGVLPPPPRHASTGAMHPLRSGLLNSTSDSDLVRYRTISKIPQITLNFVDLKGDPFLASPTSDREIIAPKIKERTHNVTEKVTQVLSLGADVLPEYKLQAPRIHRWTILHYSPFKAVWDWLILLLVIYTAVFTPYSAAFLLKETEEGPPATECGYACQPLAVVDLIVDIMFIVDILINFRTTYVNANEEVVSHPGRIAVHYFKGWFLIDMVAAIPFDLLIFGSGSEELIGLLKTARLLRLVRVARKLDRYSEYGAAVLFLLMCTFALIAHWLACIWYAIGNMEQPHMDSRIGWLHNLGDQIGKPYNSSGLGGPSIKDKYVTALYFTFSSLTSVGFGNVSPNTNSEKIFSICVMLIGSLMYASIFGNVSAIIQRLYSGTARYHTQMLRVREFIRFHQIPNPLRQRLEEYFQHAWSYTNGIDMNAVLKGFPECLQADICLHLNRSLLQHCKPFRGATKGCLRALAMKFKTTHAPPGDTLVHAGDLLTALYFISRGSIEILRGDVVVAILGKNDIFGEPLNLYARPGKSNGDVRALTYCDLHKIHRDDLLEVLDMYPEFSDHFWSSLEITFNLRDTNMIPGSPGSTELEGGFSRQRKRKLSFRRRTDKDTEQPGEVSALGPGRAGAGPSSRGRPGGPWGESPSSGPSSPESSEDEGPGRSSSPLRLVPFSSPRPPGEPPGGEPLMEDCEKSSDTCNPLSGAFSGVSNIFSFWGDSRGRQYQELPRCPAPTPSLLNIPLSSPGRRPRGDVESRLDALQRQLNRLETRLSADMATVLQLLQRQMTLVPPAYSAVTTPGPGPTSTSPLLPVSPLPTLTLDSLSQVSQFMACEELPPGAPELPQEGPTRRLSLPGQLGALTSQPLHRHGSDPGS
Method: CHO cells expressing hERG protein were cultured in 175 cm^2 culture flasks. When the cell density grew to 60-80%, the culture medium was removed, the cells were washed once with 7 mL PBS, and then 3 mL Detachin was added for digestion. After digestion was complete, 7 mL of culture medium was added to neutralize, then centrifuged. The supernatant was aspirated, and 5 mL of culture medium was added to resuspend to ensure that the cell density is 2-5×10^6/mL.
Both the single-cell high-impedance sealing and whole-cell mode formation processes were automatically completed by the Qpatch instrument. After obtaining the whole-cell recording mode, the cell was clamped at -80 mV. Before a 5-second +20 mV depolarizing stimulus was given, a 50-ms -50 mV pre-voltage was given, and then the cell was repolarized to -50 mV for 5 seconds and then returned to -80 mV. This voltage stimulation was applied every 15 seconds. After recording for 2 minutes, the extracellular solution was recorded for 2 minutes. Then the drug administration process began. The compound concentration started from the lowest tested concentration. Each tested concentration was given for 2 minutes. […] At least three cells were tested for each concentration (n≥3).
The compound stock solution was diluted with extracellular fluid, 5 µL of 20 mM compound stock solution was added to 2495 µL extracellular fluid, diluted 500 times to 40 µM, and then serially diluted 3 times in extracellular fluid containing 0.2% DMSO (v/v) to obtain the final concentration to be tested.
The experimental data were analyzed by XLFit software.

[1] = cAMP levels in hGLP-1R/HEK293 cell line, Table 1, read-out: determined EC50
[2] = cAMP levels of the hGLP-1R/HEK293 cell line, Table 2, comparison with reference compounds, read-out: EC50

T1 sequence (P43220 24-463): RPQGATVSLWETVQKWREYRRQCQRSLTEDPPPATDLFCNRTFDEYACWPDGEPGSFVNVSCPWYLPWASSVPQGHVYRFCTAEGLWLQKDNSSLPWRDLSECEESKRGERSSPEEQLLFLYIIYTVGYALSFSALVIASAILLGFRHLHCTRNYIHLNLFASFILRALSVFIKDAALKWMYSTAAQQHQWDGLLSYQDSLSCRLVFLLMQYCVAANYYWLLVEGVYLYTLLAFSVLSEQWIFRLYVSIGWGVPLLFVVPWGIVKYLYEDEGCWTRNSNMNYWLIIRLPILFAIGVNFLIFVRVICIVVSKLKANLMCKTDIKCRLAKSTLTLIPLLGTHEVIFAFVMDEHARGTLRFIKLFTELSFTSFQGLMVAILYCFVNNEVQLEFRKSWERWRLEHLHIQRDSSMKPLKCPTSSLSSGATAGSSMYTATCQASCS

Structure (SMILES)	EC50 (human GLP-1 receptor; [1]) [nM]	IC50 (hERG potassium channels) [nM]	EC50 (human GLP-1 receptor; [2]) [nM]
CCOc1cc(C(=O)O)cc2c1nc(CN1CCN(c3cccc(OCc4ccc(C#N)cc4F)n3)C=N1)n2C[C@@H]1CCO1 [Compound 9, (S)-2-((4-(6-((4-cyano-2-fluorobenzyl)oxy)pyridin-2-yl)-5,6-dihydro-1,2,4-triazin-1(4H)-yl)methyl)-4-ethoxy-1-(oxetan-2-ylmethyl)-1H-benzo[d]imidazole-6-carboxylic acid]	0.0012	> 40000	
COc1cc(C(=O)O)cc2c1nc(CN1CCN(c3cccc(OCc4ccc(Cl)cc4F)n3)C=N1)n2C[C@@H]1CCO1 [Compound 17, (S)-2-((4-(6-((4-chloro-2-fluorobenzyl)oxy)pyridin-2-yl)-5,6-dihydro-1,2,4-triazin-1(4H)-yl)methyl)-4-methoxy-1-(oxetan-2-ylmethyl)-1H-benzo[d]imidazole-6-carboxylic acid]	0.0047	> 40000	
COc1cc(C(F)(F)F)ccc1COc1cccc(N2C=NN(Cc3nc4c(OC)cc(C(=O)O)cc4n3C[C@@H]3CCO3)CC2)n1 [Compound 23, (S)-4-methoxy-2-((4-(6-((2-methoxy-4-(trifluoromethyl)benzyl)oxy)pyridin-2-yl)-5,6-dihydro-1,2,4-triazin-1(4H)-yl)methyl)-1-(oxetan-2-ylmethyl)-1H-benzo[d]imidazole-6-carboxylic acid]	0.0015	> 40000	
[2H]C([2H])([2H])Oc1cc(C(=O)O)cc2c1nc(CN1CCC(c3cccc4c3OC(C)(c3ccc(Cl)cn3)O4)CC1)n2C[C@@H]1CCO1 (stereo partly drawn) [Compound 61, 2-((4-(2-(5-chloropyridin-2-yl)-2-methylbenzo[d][1,3]dioxol-4-yl)piperidin-1-yl)methyl)-4-(methoxy-d3)-1-(((S)-oxetan-2-yl)methyl)-1H-benzo[d]imidazole-6-carboxylic acid]	0.0103	> 40000	
COc1cc(C(=O)O)cc2c1nc(CN1CCN(c3cccc4c3OC(C)(c3ccc(Cl)cc3F)O4)C=N1)n2C[C@@H]1CCO1 (stereo partly drawn) [Compound 63, 2-((4-(2-(4-chloro-2-fluorophenyl)-2-methylbenzo[d][1,3]dioxol-4-yl)-5,6-dihydro-1,2,4-triazin-1(4H)-yl)methyl)-4-methoxy-1-(((S)-oxetan-2-yl)methyl)-1H-benzo[d]imidazole-6-carboxylic acid]	0.0152	> 40000	
[2H]C([2H])([2H])Oc1cc(C(=O)O)cc2c1nc(CN1CCC(c3cccc4c3OC(C)(c3ccc(C(F)(F)F)cn3)O4)CC1)n2C[C@@H]1CCO1 (stereo partly drawn) [Compound 67, 4-(methoxy-d3)-2-((4-(2-methyl-2-(5-(trifluoromethyl)pyridin-2-yl)benzo[d][1,3]dioxol-4-yl)piperidin-1-yl)methyl)-1-(((S)-oxetan-2-yl)methyl)-1H-benzo[d]imidazole-6-carboxylic acid]	0.0141	> 40000	
[2H]C([2H])([2H])C([2H])([2H])Oc1cc(C(=O)O)cc2c1nc(CN1CCN(c3cccc4c3OC(C)(c3ccc(Cl)cn3)O4)C=N1)n2C[C@@H]1CCO1 (stereo partly drawn) [Compound 73, 2-((4-(2-(5-chloropyridin-2-yl)-2-methylbenzo[d][1,3]dioxol-4-yl)-5,6-dihydro-1,2,4-triazin-1(4H)-yl)methyl)-4-(ethoxy-d5)-1-(((S)-oxetan-2-yl)methyl)-1H-benzo[d]imidazole-6-carboxylic acid]	0.0084	> 40000	
[2H]C([2H])([2H])C([2H])([2H])Oc1cc(C(=O)O)cc2c1nc(CN1CCN(c3cccc4c3OC(C)(c3ccc(Cl)cc3F)O4)C=N1)n2C[C@@H]1CCO1 (stereo partly drawn) [Compound 76, 2-((4-(2-(4-chloro-2-fluorophenyl)-2-methylbenzo[d][1,3]dioxol-4-yl)-5,6-dihydro-1,2,4-triazin-1(4H)-yl)methyl)-4-(ethoxy-d5)-1-(((S)-oxetan-2-yl)methyl)-1H-benzo[d]imidazole-6-carboxylic acid]	0.0045	> 40000	
CCOc1cc(C(=O)O)cc2c1nc(CN1CCN(c3cccc4c3OC(C)(c3ccc(C(F)(F)F)cc3F)O4)C=N1)n2C[C@@H]1CCO1 (stereo partly drawn) [Compound 81, 4-ethoxy-2-((4-(2-(2-fluoro-4-(trifluoromethyl)phenyl)-2-methylbenzo[d][1,3]dioxol-4-yl)-5,6-dihydro-1,2,4-triazin-1(4H)-yl)methyl)-1-(((S)-oxetan-2-yl)methyl)-1H-benzo[d]imidazole-6-carboxylic acid]	0.0084	> 40000	
[2H]C([2H])([2H])C([2H])([2H])Oc1cc(C(=O)O)cc2c1nc(CN1CCN(c3cccc4c3OC(C)(c3ccc(C(F)(F)F)cc3F)O4)C=N1)n2C[C@@H]1CCO1 (stereo partly shown) [Compound 82]	0.0131	> 40000	
CCOc1cc(C(=O)O)cc2c1nc(CN1CCN(c3cccc4c3OC(C)(c3ccc(Cl)cc3OC)O4)C=N1)n2C[C@@H]1CCO1 (stereo partly drawn) [Compound 85, 2-((4-(2-(4-chloro-2-methoxyphenyl)-2-methylbenzo[d][1,3]dioxol-4-yl)-5,6-dihydro-1,2,4-triazin-1(4H)-yl)methyl)-4-ethoxy-1-(((S)-oxetan-2-yl)methyl)-1H-benzo[d]imidazole-6-carboxylic acid]	0.005		
CCOc1cc(C(=O)O)cc2c1nc(CN1CCN(c3cccc4c3OC(C)(c3ccc(F)cc3F)O4)C=N1)n2C[C@@H]1CCO1 (stereo partly drawn) [Compound 86, 2-((4-(2-(2,4-difluorophenyl)-2-methylbenzo[d][1,3]dioxol-4-yl)-5,6-dihydro-1,2,4-triazin-1(4H)-yl)methyl)-4-ethoxy-1-(((S)-oxetan-2-yl)methyl)-1H-benzo[d]imidazole-6-carboxylic acid]	0.0289		
[2H]C([2H])([2H])C([2H])([2H])Oc1cc(C(=O)O)cc2c1nc(CN1CCN(c3cccc4c3OC(C)(c3ccc(F)cc3F)O4)C=N1)n2C[C@@H]1CCO1 (stereo partly drawn) [Compound 87, 2-((4-(2-(2,4-difluorophenyl)-2-methylbenzo[d][1,3]dioxol-4-yl)-5,6-dihydro-1,2,4-triazin-1(4H)-yl)methyl)-4-(ethoxy-d5)-1-(((S)-oxetan-2-yl)methyl)-1H-benzo[d]imidazole-6-carboxylic acid]	0.0212		
COc1cc(C(F)(F)F)ccc1C1(C)Oc2cccc(N3C=NN(Cc4nc5c(OC)cc(C(=O)O)cc5n4C[C@@H]4CCO4)CC3)c2O1 (stereo partly drawn) [Compound 88, 4-methoxy-2-((4-(2-(2-methoxy-4-(trifluoromethyl)phenyl)-2-methylbenzo[d][1,3]dioxol-4-yl)-5,6-dihydro-1,2,4-triazin-1(4H)-yl)methyl)-1-(((S)-oxetan-2-yl)methyl)-1H-benzo[d]imidazole-6-carboxylic acid]	0.0087		
[2H]C([2H])([2H])Oc1cc(C(=O)O)cc2c1nc(CN1CCN(c3cccc4c3OC(C)(c3ccc(C(F)(F)F)cc3OC)O4)C=N1)n2C[C@@H]1CCO1 (stereo partly drawn) [Compound 89, 4-(Methoxy-d3)-2-((4-(2-(2-methoxy-4-(trifluoromethyl)phenyl)-2-methylbenzo[d][1,3]dioxol-4-yl)-5,6-dihydro-1,2,4-triazin-1(4H)-yl)methyl)-1-(((S)-oxetan-2-yl)methyl)-1H-benzo[d]imidazole-6-carboxylic acid]	0.0075		
CCOc1cc(C(=O)O)cc2c1nc(CN1CCN(c3cccc4c3OC(C)(c3ccc(C(F)(F)F)cc3OC)O4)C=N1)n2C[C@@H]1CCO1 (stereo partly drawn) [Compound 90, 4-ethoxy-2-((4-(2-(2-methoxy-4-(trifluoromethyl)phenyl)-2-methylbenzo[d][1,3]dioxol-4-yl)-5,6-dihydro-1,2,4-triazin-1(4H)-yl)methyl)-1-(((S)-oxetan-2-yl)methyl)-1H-benzo[d]imidazole-6-carboxylic acid]	0.0061		
O=C(O)c1ccc2nc(CN3CCC(c4cccc(OCc5ccc(Cl)cc5F)n4)CC3)n(C[C@@H]3CCO3)c2c1 [WO2018109607 , Example 3A-01, reference compound]			0.0327
O=C(O)c1ccc2nc(CN3CCN(c4cccc(OCc5ccc(Cl)cc5F)n4)CC3)n(C[C@@H]3CCO3)c2c1 [WO2018109607 , Example 10A-08, reference compound]			0.0289
CC1(c2ccc(Cl)cc2F)Oc2cccc(C3CCN(Cc4nc5ccc(C(=O)O)cc5n4C[C@@H]4CCO4)CC3)c2O1 (stereo partly shown) [WO2019239319 , Example 7, reference compound]			0.022
O=C(O)c1ccc2nc(CN3CCC(c4cccnc4OCc4ccc(Cl)cc4F)CC3)n(C[C@@H]3CCO3)c2c1 [WO2019239371 , Example 1, reference compound]			0.0458
N#Cc1ccc(COc2cccc(C3CCN(Cc4nc5c(F)cc(C(=O)O)cc5n4C[C@@H]4CCO4)CC3)n2)c(F)c1 [WO2022109182 , Example 21, reference compound]			0.0261
